Assay [1] concerns the target rScl1.3FL. Description: Surface plasmon resonance binding of C-C′ cyclic peptide to immobilized rScl1.3FL. Also noted: species or system Streptococcus pyogenes (M3-type GAS, MGAS315). Conditions: Biacore 3000, 25°C; rScl1.3FL immobilized on streptavidin chip (~100 RU); peptide 10-500 μM; HBS buffer pH 7.4; 1:1 Langmuir model; duplicates; read-out: dissociation constant KD (SPR). The method, then:
Real time binding assays were performed at 25°C on a Biacore 3000 Surface Plasmon Resonance (SPR) instrument (GE Healthcare). For immobilization, rScl1.3FL protein containing the C-terminal Strep-tag II was injected at a concentration of 40 μM on streptavidin-coated sensor chip, SA Biacore, until the desired level of immobilization was achieved (averaged value of 100 RU). Binding assays were carried out by injecting the C-C′ cyclic peptide at concentrations ranging between 10 and 500 μM. Experiments were carried out in HBS buffer (10 mM HEPES, 150 mM NaCl, 3 mM EDTA, pH 7.4). The association phase (kon) was followed for 270 s, whereas the dissociation phase (koff) was followed for 300 s. The reference chip sensorgrams were subtracted from sample sensorgrams. Experiments were carried out in duplicates. Kinetic parameters were estimated assuming a 1:1 Langmuir binding model and using version 4.1 Evaluation Software (GE Healthcare).
(In general: In SPR one partner is held on a chip, and binding of the other changes the refractive index at the surface.)

The target in assay [2] is rScl1.3FL. Description: Tryptophan fluorescence quenching binding assay in solution. Also on record: species or system Streptococcus pyogenes (M3-type GAS, MGAS315). To be noted: rScl1.3FL 30 μM, peptide 0-300 μM, 25.0°C, excitation 298 nm, emission 333 nm; 1:1 model; duplicates. The method, then:
rScl1.3FL protein, at a concentration of 30 μM, was incubated with increasing concentrations of C-C′ cyclic peptide (0–300 μM) at 25.0°C, using an excitation wavelength of 298.0 nm and a fluorescence emission wavelength ranging from 300 to 400 nm. The acquisition parameters were set as follows: excitation and emission slits at 5 nm; 120 nm/min scan rate; 1.00 nm data interval averaging time at 0.500 s, PMT voltage at “high.” Fluorescence values were recorded at 333 nm, and subtracted from the fluorescence intensity of the ligand-free protein, generating −Δfluorescence. The −Δfluorescence values were plotted against the peptide concentration (Williamson, [2013]). Experiments were carried out in duplicates. A control assay was carried out employing the buffer as titrant to assess that the dilution effect was under 3%, not affecting the results.

Assay [3] concerns the target recombinant full-length Scl1.3FL protein (streptococcal collagen-like protein 1, M3-type, repaired allele) (Streptococcus pyogenes (group A Streptococcus), M3-type strain MGAS315). In words: other fluorescence titration; tryptophan fluorescence quenching in solution; rScl1.3FL at 30 μM with 0-300 μM C-C′ cyclic peptide, 25.0°C, excitation 298 nm, read at 333 nm; 1:1 model.

Assay [4] shares this target. In words: SPR; Biacore 3000, 25°C; rScl1.3FL with C-terminal Strep-tag II immobilised on a streptavidin-coated SA chip (about 100 RU); C-C′ cyclic peptide injected at 10-500 μM; HBS buffer (10 mM HEPES, 150 mM NaCl, 3 mM EDTA, pH 7.4); 1:1 Langmuir model.

The record followed here is PMC5005324, “Unique Footprint in the scl1.3 Locus Affects Adhesion and Biofilm Formation of the Invasive M3-Type Group A Streptococcus” (Frontiers in Cellular and Infection Microbiology, 2016).

Bridge positions count the residues as written; N and C are the ends. Ends that are not written are not given here.

“CRVTYSSPEDGIHELFC (disulfide 1-17 (inferred)) [C-C′ cyclic peptide, Disulfide-cyclised, acetylated and amidated peptide mimicking the C-C′ β-hairpin of the EDA domain of cellular fibronectin]”: the Kd (in general, the constant that tells how readily two partners part at equilibrium) was determined as 63.3 µM in assay [1] and 44.5 ± 9 µM in assay [2].

B1: C-C′ cyclic peptide (EDA-derived, mimics the C-C′ β-hairpin of the extra domain A of cellular fibronectin) (peptide)
peptide: Ac-CRVTYSSPEDGIHELFC-NH2
modifications: disulfide 1-17
SMILES: CC[C@H](C)[C@@H]1NC(=O)CNC(=O)[C@H](CC(=O)O)NC(=O)[C@H](CCC(=O)O)NC(=O)[C@@H]2CCCN2C(=O)[C@H](CO)NC(=O)[C@H](CO)NC(=O)[C@H](Cc2ccc(O)cc2)NC(=O)[C@H]([C@@H](C)O)NC(=O)[C@H](C(C)C)NC(=O)[C@H](CCCNC(=N)N)NC(=O)[C@@H](NC(C)=O)CSSC[C@@H](C(N)=O)NC(=O)[C@H](Cc2ccccc2)NC(=O)[C@H](CC(C)C)NC(=O)[C@H](CCC(=O)O)NC(=O)[C@H](Cc2c[nH]cn2)NC1=O
For B1, the Kd was determined as 44.5 µM in assay [3] and 63.3 µM in assay [4].
